Test results as given in paper PMC11134608, “UBR5 forms ligand-dependent complexes on chromatin to regulate nuclear hormone receptor stability” (Molecular cell, 2023).

Columns and labels:
RARA reporter = RARA reporter degradation (GFP/mCherry); type: cell-based, human
Procedure: (§1) Reporter cell lines were seeded in triplicate at a density of 1 million cells/ml in 100 μl per well in a 96 well plate and measured once. Ligand was added by Digital Dispenser (Tecan), and incubated at 37°C for the appropriate time before reading by flow cytometry. Cells were analyzed for GFP vs mCherry expression. GFP expression was normalized to mCherry signal and ligand treatments were compared to DMSO controls.

[1] = test system: ATRA-induced gene expression in NB4 cells; test: RNA sequencing of NB4 cells; type: cell-based, human; details: NB4, ATRA 0, 8, 24, 48 h
Procedure: Cell lines were expanded, treated with ligand, and incubated at 37C. Cells were pelleted by centrifugation for 5 minutes, washed with cold PBS, and RNA was isolated by RNeasy kit (Qiagen) per manufacturer’s instructions. RNA was sent to Novogene for library preparation and sequencing, or prepared for sequencing (NEBNext, New England Biolabs) and sequenced on an Illumina NextSeq 550 sequencer.
Paired-end reads were aligned to the hg38.p13[81],[82] reference genome with the STAR[83] (v5.2.7b) aligner as part of the RSEM[99] command line tool. Gene transcript abundance was further quantified from aligned fragments using RSEM to generate a gene-by-sample matrix of expected counts. Differential expression was tested, as with the ChIP-seq data, using the DESeq[88],[93]2 and ashr[94] pipeline, this time calculating sample-specific scale factor offset using the method of median-ratio as implemented in the R package EBSeq[100] (v1.36.0). For plotting in heatmaps, genes were selected based on ChIP-seq peak annotation and subset.

[2] = test system: RARA complexes (NCOR, NCOA, UBR5); test: RARA-GFP immunoprecipitation (IP-MS and IP-western); type: cell-based, human
Procedure: To examine the temporal dynamics of this competition in cells, we performed sequential RARA immunoprecipitation/mass spectrometry (IP/MS) in the presence of MG132 at 0, 4, and 16 h following ATRA treatment.
Reporter cells (up to 100 million) were treated with ligand (ATRA, dexamethasone) and allowed to incubate for different time points. […] Lysates were incubated with GFP-Trap Magnetic Agarose beads (ChromoTek, GTMA-20) overnight at 4°C on a rotator. Beads were magnetically removed and washed three times with Pierce IP Lysis Buffer with ligand added before boiling in 1x NuPAGE LDS Sample Buffer (ThermoFischer, NP0007).
After the washing step, samples were eluted using Glycine-HCl buffer (0.2 M, pH 2.4) and rebuffered to pH 8.0. The IP eluates were reduced with 10 mM TCEP for 30 min at room temperature, and then alkylated with 15 mM iodoacetamide for 45 min at room temperature in the dark. Alkylation was quenched by the addition of 10 mM DTT. Proteins were isolated by methanol-chloroform precipitation. The protein pellets were dried and then resuspended in 50 μL 200 mM EPPS pH 8.0. The resuspended protein samples were digested with 2 μg LysC overnight at room temperature followed by the addition of 0.5 μg Trypsin for 6 h at 37°C. Protein digests were dried, resuspended in 100 μL 1% formic acid, and desalted using 10-layer C18 stage-tips before being analyzed by LC-MS.

PML-RARA = test system: PML-RARA; design: method as in PMID 10611294, PMID 20378816; details: ATRA targets RARA, ATO targets PML, ref [6],[11]; cited from earlier work
UBR5-RARA/RXRA [3] = test: In vitro FLAG-UBR5 pull-down of His-tagged RARA/RXRA heterodimer; type: binding, human; details: 50 μM ATRA, mutant proteins
Procedure: The resin was pelleted and excess buffer removed. 60 μL of fresh binding buffer was re-added, followed by addition of 15 pmol (2.5 μL ofa6 μM solution) of purified FLAG-UBR5 protein and incubated on a rotating wheel at 4°C for 60–90 minutes. The resin was pelleted, excess buffer removed, and 150 μL fresh binding buffer (supplemented with 50 μM ligand of interest or DMSO) added, followed by 150 pmol protein (binding partner protein of interest) and incubated for another 60 minutes. The resin was pelleted, excess buffer removed and washed with 400 μL of binding buffer (supplemented with ligand of interest or DMSO), and this process was repeated three times. The resin was pelleted, excess buffer removed and 45 μL of binding buffer supplemented with 1 mg/mL 3xFLAG peptide was added to elute proteins over 30 minutes on a rotating wheel at room temperature. The resin was pelleted, and 40 μL of the supernatant was collected and mixed with 12 μL of 5xSDS gel loading buffer. 6 μL of these samples were applied to SDS-PAGE on a 4–20% gradient gel (Biorad). The gel was transferred to a nitrocellulose membrane using the Trans-Blot Turbo Transfer System (Biorad). Following blocking with 5% skim milk solution in TBST, primary antibodies targeting the NR proteins were added in TBST and incubated overnight at 4 °C. […]

UBR5-RARA/RXRA [4] = test: RARE dsDNA incorporation into UBR5-RARA/RXRA complex; type: binding, human
Procedure: A.Western blot (anti-His)showingin vitroFLAG-UBR5 pulldownofpurified His-tagged RARA/RXRA heterodimer, showing thata fluorescein-labelled 24-merdsDNAcontaining a DR5 Retinoic Acid
Immediately before preparing samples for SDS-PAGE, fluorescence
counts were measured at 488 nm to assessdsDNAincorporation. Fluorescence counts were normalized to the –dsDNA, DMSO condition as abaseline.

[5] = test system: RARA and UBR5 on chromatin in NB4 cells; test: ChIP-seq of RARA and UBR5 in NB4 cells; type: cell-based, human; details: NB4, ATRA 8 and 24 h vs DMSO
Procedure: Cell lines were expanded (up to 50 million), treated with ligand, and incubated at 37 °C. Cells were pelleted by centrifugation for 5 minutes, washed twice with cold PBS, and resuspended, in 5 ml of room temperature PBS. 20 μl of 0.5M Disuccinimidyl glutarate (DSG) (ThermoFisher), was added and incubated for 30 minutes at room temperature. Cells were pelleted by centrifugation and resuspended in 8.325 ml of PBS and 8.325 ml of 2% formaldehyde and incubated for 30 minutes at room temperature. Cross-linking was quenched by the addition of 1665 μl of 1 M Tris-HCl pH 8.0 and 832.5 μl of 2.5 M glycine. Cells were pelleted and washed twice with PBS. Cross-linked cells were resuspended in LB1 Buffer (50mM HEPES-KOH, pH7.5, 140mM NaCl, 1mM EDTA, 10% Glycerol, 0.5% NP-40, 0.25% Triton X-100 in distilled water) and rotated for 10 minutes at 4C. Cells were pelleted and resuspended in LB2 (10mM Tris-HCl, pH 8.0, 200mM NaCl, 1mM EDTA, 0.5mM EGTA in distilled water) and rotated for 10 minutes at 4C. Cells were pelleted and resuspended in LB3 (10mM Tris-HCL, pH 8.0, 100mM NaCl, 1mM EDTA, 0.5mM EGTA, 0.1% Na-deoxycholate, 0.5% Na-Lauroylsarcosine, 1% Triton X-100, in distilled water) sonicated (Covaris, E220). […] Fragment length and concentrations were assessed using TapeStation (Agilent) and Qubit (ThermoFisher), and libraries were sequenced on an Illumina NextSeq 550 sequencer. […]

[6] = test system: RARA and RXRA protein levels in NB4 cells; test: Whole-proteome mass spectrometry of NB4 cells; type: cell-based, human; details: ATRA 24 h, n = 3 per condition
Procedure: Cells were lysed by addition of lysis buffer (8 M Urea, 50 mM NaCl, 50 mM 4-(2-hydroxyethyl)-1-piperazineethanesulfonic acid (EPPS) pH 8.5, Protease and Phosphatase inhibitors) and homogenization by bead beating (BioSpec) for three repeats of 30 seconds at 2400. Bradford assay was used to determine the final protein concentration in the clarified cell lysate. […] Desalted peptides were dried in a vacuum-centrifuged and reconstituted in 0.1% formic acid for LC-MS analysis.
Data were collected using a TimsTOF Pro2 (Bruker Daltonics, Bremen, Germany) coupled to a nanoElute LC pump (Bruker Daltonics, Bremen, Germany) via a CaptiveSpray nano-electrospray source.
The ddaPASEF parameters included: 100% duty cycle using accumulation and ramp times of 50 ms each, 1 TIMS-MS scan and 10 PASEF ramps per acquisition cycle. […] The quadrupole isolation width was set to 2 m/z for m/z <700 and 3 m/z for m/z >800, with the m/z between 700–800 m/z being interpolated linearly. […] To perform diaPASEF, the precursor distribution in the DDA m/z-ion mobility plane was used to design an acquisition scheme for DIA data collection which included two windows in each 50 ms diaPASEF scan. […]

RARA and PML-RARA = test: Western blotting of RARA / PML-RARA degradation in NB4 cells; type: cell-based, human
Procedure: Membranes were blocked for 30 minutes to 1 hour at room temperature in Odyssey Blocking Buffer/PBS (LI-COR Biosciences), and incubated with primary antibodies at 4 °C overnight. Stained membranes were washed three times in Tris-buffered saline with Tween 20 (TBS-T) and incubated for 1 hour at room temperature with secondary IRDye-conjugated antibodies (LI-COR Biosciences). Membranes were washed three times in TBS-T before imaging (Odyssey Imaging System, LI-COR Biosciences).

NB4 cells = test: NB4 viability (relative cell counts); type: cell-based, human; details: shUBR5 vs shCTRL, n = 4
Procedure: (D) Western blotting of NB4 cells transduced with shRNAs against luciferase (shCTRL) or UBR5 treated with or without ATRA. (E) Viability by relative cell counts of NB4 cells transduced with control or UBR5 shRNAs (two shRNAs per condition, combined) following treatment with 1 μM ATRA for 24 h. (n = 4, two-sided t test). […] (NS, not significant, *p < 0.05, **p < 0.005, ***p < 0.0005, ****p < 0.00005, error bars represent SEM.)
All flow cytometry-based assays (degradation and viability assays) were run in triplicate (n=3) unless otherwise specified where n represents a distinct flow cytometric specimen (a well or tube containing ~100,000 cells). P-values were calculated using GraphPad Prism two-sided t-test and are centered around the mean and error bars represent the SEM unless otherwise specified.
K. NB4 cell viability following
transduction of shRNAs againstluciferase or UBR5 and ATRA treatment for 3 days.Data from two shRNAs are combined.(n=4, two sided t-test)NS,not significant, *p < 0.05, **p <0.005, ***p<

PML-RARA-GFP reporter = PML-RARA-GFP reporter degradation; type: cell-based, human; details: equivalent single-residue glutamate substitutions
Procedure: as §1

UBR5-RARA = test: In vitro FLAG-UBR5 pull-down of His-tagged RARA; type: binding, human; details: 50 μM ligand, anti-His western, 25 mM HEPES pH 7.4, 125 mM NaCl, 0.05% TWEEN-20
Procedure: 12 μL of FLAG M2 slurry were equilibrated with binding buffer (25 mM HEPES pH 7.4, 125 mM NaCl, 0.05% TWEEN-20). The resin was pelleted and excess buffer removed. 60 μL of fresh binding buffer was re-added, followed by addition of 15 pmol (2.5 μL ofa6 μM solution) of purified FLAG-UBR5 protein and incubated on a rotating wheel at 4°C for 60–90 minutes. The resin was pelleted, excess buffer removed, and 150 μL fresh binding buffer (supplemented with 50 μM ligand of interest or DMSO) added, followed by 150 pmol protein (binding partner protein of interest) and incubated for another 60 minutes. The resin was pelleted, excess buffer removed and washed with 400 μL of binding buffer (supplemented with ligand of interest or DMSO), and this process was repeated three times. The resin was pelleted, excess buffer removed and 45 μL of binding buffer supplemented with 1 mg/mL 3xFLAG peptide was added to elute proteins over 30 minutes on a rotating wheel at room temperature. The resin was pelleted, and 40 μL of the supernatant was collected and mixed with 12 μL of 5xSDS gel loading buffer. 6 μL of these samples were applied to SDS-PAGE on a 4–20% gradient gel (Biorad). The gel was transferred to a nitrocellulose membrane using the Trans-Blot Turbo Transfer System (Biorad). Following blocking with 5% skim milk solution in TBST, primary antibodies targeting the NR proteins were added in TBST and incubated overnight at 4 °C. The following day, membranes were washed thrice with TBST buffer and incubated for 45 minutes with fluorescent secondary antibody (Invitrogen A11357), followed by three more washes with TBST. Imaging was performed on a Licor Odyssey system, scanned at 800 nm.

With `CC1=C(/C=C/C(C)=C/C=C/C(C)=C/C(=O)O)C(C)(C)CCC1` [ATRA, all-trans-retinoic acid] the “requirement of UBR5 HECT domain for RARA reporter degradation” value (RARA reporter; HEK293, CRISPR-edited UBR5 deficient of HECT domain, n = 3) was “necessary for ATRA-induced RARA reporter degradation”, the “degradation of RARA reporter, I254 / I258 glutamate mutants” value (RARA reporter; I254 and I258 mutations, n = 3) was “significantly reduced ATRA-induced degradation” and the “RARA LBD reporter degradation” value (RARA reporter; RARA LBD only, ATRA) was “still mediated ATRA-induced reporter degradation”. For the same compound, the “degradation of RARA reporter, V240 glutamate mutant” value (RARA reporter; V240 single mutation, n = 3) was “abolished ATRA-induced degradation”, the “effect of UBR5 knockdown on ATRA-induced transcription” value [1] was “strongly decreased transcriptional activation” and the “RARA-associated NCOA1 and UBR5 by IP-western” value ([2]; U937 RARA-GFP, 10 µM ATRA / MG132, 0-24 h) was “initial NCOA1 binding to RARA after 4 h of ATRA treatment, diminishing NCOA1 binding from 4 to 16 h, and increased binding of UBR5 at 16 and 24 h”. The “RARA-associated UBR5 by IP/MS” value ([2]; with MG132, 0, 4, 16 h ATRA) was “enrichment of UBR5 peptides at 16 h post ATRA treatment”, the “PML-RARA degradation (literature)” value (PML-RARA) was “PML-RARA is degraded therapeutically” and the “agonist-induced binding of RARA V240E / RXRA V280E to UBR5” value (UBR5-RARA/RXRA [3]) was “abolished agonist-induced binding to UBR5 in vitro”. The “DNA incorporation into UBR5-RARA/RXRA complex” value (UBR5-RARA/RXRA [4]) was “DNA was readily incorporated into a UBR5-RARA/RXRA complex”, the “RARA ChIP-seq peaks” value [5] was “lost following ATRA treatment” and the “UBR5 ChIP-seq binding at RARA loci” value [5] was “binding was strengthened following ATRA treatment”. The “protein levels of RARA and RXRA” value [6] was “significantly and selectively decreased”, the “RARA and PML-RARA degradation, proteasome / neddylation dependence” value (RARA and PML-RARA; 10 µM ATRA with MG132 or MLN4924) was “dependent on the proteasome, but not neddylation” and the “effect of UBR5 knockdown on PML-RARA degradation” value (RARA and PML-RARA; UBR5 shRNA) was “prevented ATRA-induced degradation of PML-RARA in NB4 cells”. The “effect of UBR5 knockdown on RARA degradation” value (RARA and PML-RARA; UBR5 shRNA vs control shRNA) was “rescued ATRA-induced RARA degradation”, the “ATRA sensitivity upon UBR5 knockdown” value (NB4 cells) was “decreased ATRA sensitivity in NB4 cells” and the “degradation of PML-RARA-GFP reporter, cleft mutants” value (PML-RARA-GFP reporter) was “blocked ATRA-induced degradation of the PML-RARA-GFP reporter in cells”. For the same compound, the “binding of RARA to UBR5” value (UBR5-RARA) was “robustly induced binding of RARA to UBR5”.
